{"source": "ChEMBL document CHEMBL1147409", "about": "“3-(4-Aminobutyn-1-yl)pyridines: binding at alpha 4 beta 2 nicotinic cholinergic receptors” (Bioorg Med Chem Lett, 2004)", "data": [{"molecular_target": "Neuronal acetylcholine receptor alpha4/beta2 (Rattus norvegicus)", "assay": "Binding affinity towards nicotinic acetylcholine receptor alpha4-beta2 from rat brain homogenates", "units": {"Ki": "nM"}, "values": [{"smiles": "CNCCOc1cccnc1", "Ki": 35}, {"smiles": "CNCCC#Cc1ccc(OC)nc1", "Ki": "> 10000"}, {"smiles": "c1cncc(CN2CCCC2)c1", "Ki": 30}, {"smiles": "CN(C)CCC#Cc1cccnc1", "Ki": 510}, {"smiles": "C[N+](C)(C)CCC#Cc1cccnc1", "Ki": 470}, {"smiles": "C(#Cc1cccnc1)CCN1CCCC1", "Ki": "> 10000"}, {"smiles": "c1cncc(OCCN2CCCC2)c1", "Ki": 212}, {"smiles": "CN(C)Cc1cccnc1", "Ki": 540}, {"smiles": "C[N+](C)(C)CCOc1cccnc1", "Ki": 0.5}, {"smiles": "CNCCC#Cc1ccc(Cl)nc1", "Ki": 154}, {"smiles": "C[N+](C)(C)Cc1cccnc1", "Ki": 110}, {"smiles": "CNCc1cccnc1", "Ki": "> 10000"}, {"smiles": "CCN(C)Cc1cccnc1", "Ki": 28}, {"smiles": "CN(C)CCOc1cccnc1", "Ki": 21}]}, {"molecular_target": "Neuronal acetylcholine receptor; alpha4/beta2 (Homo sapiens, UniProt P17787+P43681)", "sequence (P17787 whole entry)": "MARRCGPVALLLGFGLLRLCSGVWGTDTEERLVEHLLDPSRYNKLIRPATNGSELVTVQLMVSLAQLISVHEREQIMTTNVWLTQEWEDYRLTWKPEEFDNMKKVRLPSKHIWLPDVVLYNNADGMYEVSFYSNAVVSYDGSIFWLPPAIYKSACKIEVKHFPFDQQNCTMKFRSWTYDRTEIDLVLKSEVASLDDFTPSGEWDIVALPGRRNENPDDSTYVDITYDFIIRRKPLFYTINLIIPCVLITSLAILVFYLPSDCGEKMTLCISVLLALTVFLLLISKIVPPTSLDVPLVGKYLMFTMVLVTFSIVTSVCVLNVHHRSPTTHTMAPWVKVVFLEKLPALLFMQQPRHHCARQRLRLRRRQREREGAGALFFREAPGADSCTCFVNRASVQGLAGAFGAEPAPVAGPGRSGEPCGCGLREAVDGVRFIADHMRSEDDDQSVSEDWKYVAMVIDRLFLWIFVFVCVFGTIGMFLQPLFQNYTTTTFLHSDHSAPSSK", "sequence (P43681 whole entry)": "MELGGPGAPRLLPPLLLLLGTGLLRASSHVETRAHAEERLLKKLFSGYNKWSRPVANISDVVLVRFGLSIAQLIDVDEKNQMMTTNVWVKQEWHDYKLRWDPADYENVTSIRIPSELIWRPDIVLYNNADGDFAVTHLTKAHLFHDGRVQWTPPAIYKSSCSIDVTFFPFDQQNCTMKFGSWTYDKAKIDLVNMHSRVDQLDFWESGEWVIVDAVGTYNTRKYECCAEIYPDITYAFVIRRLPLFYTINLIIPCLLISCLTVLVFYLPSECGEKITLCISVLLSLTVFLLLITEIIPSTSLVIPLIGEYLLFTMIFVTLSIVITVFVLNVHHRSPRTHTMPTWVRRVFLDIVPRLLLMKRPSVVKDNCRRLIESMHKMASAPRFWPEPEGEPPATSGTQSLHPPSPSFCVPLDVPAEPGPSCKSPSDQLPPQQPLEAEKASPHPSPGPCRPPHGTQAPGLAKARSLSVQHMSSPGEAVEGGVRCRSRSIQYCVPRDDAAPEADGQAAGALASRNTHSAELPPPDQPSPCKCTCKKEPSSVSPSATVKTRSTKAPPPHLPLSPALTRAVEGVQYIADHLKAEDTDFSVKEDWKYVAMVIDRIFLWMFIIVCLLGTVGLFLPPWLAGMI", "assay": "Binding affinity towards nicotinic acetylcholine receptor alpha4-beta2", "format": "protein-complex assay", "units": {"Ki": "nM"}, "values": [{"smiles": "CNCC#Cc1cccnc1", "Ki": 2290}, {"smiles": "CNC/C=C/c1cccnc1", "Ki": "~6000"}, {"smiles": "CNCC/C=C/c1cccnc1", "note": "[RIVANICLINE]", "Ki": 25}]}]}
